{"source": "patent US20230248847A1", "about": "“MULTIFUNCTIONAL NANOPARTICLES FOR THERAGNOSIS” (priority 2018, published 2023)", "key": {"[1]": {"tested_on": "orthotopic xenograft tumours of MDA-MB-231 breast cancer cell line", "assay": "In vivo therapeutic efficacy, orthotopic MDA-MB-231 breast cancer xenograft", "set-up": "species or system NSG mice", "description": "An orthotopic xenotransplantation of the triple-negative human MDA-MB-231 breast cancer cell line was performed in immunocompromised female NSG mice. The mice (5 per group) were divided into 3 groups and treated according to the protocol approved by the Institutional Animal Care and Use Committee (IACUC) of the University of Granada and the Regional Government of Andalusia according to the European Directive on the protection of animals used for scientific purposes (2010/63/EU) and Spanish law (Royal Decree 53/2013). […]"}, "[2]": {"assay": "In vivo toxicity assays (survival, external signs, weight, motor activity)", "set-up": "species or system NSG mice", "details": "for external side effects observed: intravenous every 3 days", "procedure": "All the in vivo experiments were performed in NOD scid gamma mice (NSG, NOD.Cg-Prkdcscid II2rgtmlWjl/SzJ). The animal wellbeing and experimental methods were carried out according to institutional guidelines (Research Ethics Committee of University of Granada, Spain) and international guidelines (European Community Council Directive 86/609). All the animals (n=5 per group) were kept in a micro-ventilated cage system with a 12-h light/darkness cycle, and handled in a laminar flow cabinet to maintain the specific pathogen-free conditions. To establish orthotopic xenograft tumours, female mice six to eight weeks of age were used. The mice were anaesthetised by means of the inhalation of isoflurane and tumours were generated in the right breast by means of subcutaneous injections of 5×10^5 cells/mouse mixed with Corning® Matrigel® Matrix and with 26-gauge needles. The intravenous administration of PBS (control), free DOX, and NPs in the tail vein of the mice was performed every three days for a period of 43 days, as was the fluorescence evaluation by means of IVIS® (Perkin Elmer). Tumour growth was evaluated twice a week with a digital calibrator and tumour volume was calculated by means of the formula V=(length) 2×width×π/6. The weight of the mice was also measured every three days. The endpoint of the experiment was day 44. […] During that month, the fluorescence of the mice was analyzed in IVIS® once a week. Lastly, the mice were sacrificed by cervical dislocation and the tumours were extirpated, photographed, and analyzed by means of IVIS®.\nIn another assay, a series of experiments were carried out to control the in vivo toxicity of the treatment. […] The percentage of survival (FIG. 12) during the treatment period was 100% both for mice treated with NPs and for controls. However, treatment with DOX caused a high impact on survival. After 30 days of treatment, there was a drastic decrease in the percentage of survival (30%). This effect could be attributed to the inherent systemic toxicity of this anti-tumour drug and to the serious side effects of this conventional chemotherapy treatment.\nFurthermore, in order to observe the toxic effect of the treatment at the central nervous system level, a standardised protocol for testing movement was carried out on day 30 in a cage with a camera prepared for this purpose. This camera analyzes the distance the mouse travels in 24 hours."}}}
{"smiles": "COc1cccc2c1C(=O)c1c(O)c3c(c(O)c1C2=O)C[C@@](O)(C(=O)CO)C[C@@H]3O[C@H]1C[C@H](N)[C@H](O)[C@H](C)O1", "note": "[doxorubicin]", "values": [{"measurement": "histological analysis of xenograft tumour tissues (cellularity)", "setting": "[1]; haematoxylin/eosin and DAPI staining after treatment, vs control group", "value": "cellularity decreased significantly"}, {"measurement": "therapeutic effect on tumour growth / tumour volume", "setting": "[1]; intravenous every 3 days for 43 days, NSG mice, n=5 per group, vs PBS", "value": "significant inhibition of tumour growth"}, {"measurement": "time after which inhibition of tumour growth was significant", "setting": "[1]; intravenous every 3 days, NSG mice", "value": 3, "unit": "weeks"}, {"measurement": "external side effects observed", "setting": "[2]; NSG mice, listed as DOX", "value": "high cutaneous toxicity caused in the tail"}, {"measurement": "external side effects observed", "setting": "[2]; NSG mice, listed as free DOX", "value": "weight loss, goose bumps, behaviour disorders, and damaged tail"}, {"measurement": "percentage of survival", "setting": "[2]; after 30 days of treatment, NSG mice", "value": 30, "unit": "%"}, {"measurement": "weight of mice during treatment", "setting": "[2]; compared with untreated control mice or mice treated with theranostic NPs", "value": "significant weight reduction"}, {"measurement": "motor activity (distance travelled in 24 hours)", "setting": "[2]; day 30, cage with camera", "value": "significant decrease in mouse mobility"}]}
